# According to the supplement of paper PMC10307832:
# Legend:
# Experiment in all cases: relative viability (nuclei count vs DMSO), 5 days (fraction); higher = more cells survive
# [1] = compound: CC[C@H](Nc1ncnc2[nH]cnc12)c1nc2cccc(F)c2c(=O)n1-c1ccccc1 [Idelalisib] + COc1cccc2cc(-c3nc([C@H]4CC[C@H](C(=O)O)CC4)n4ncnc(N)c34)[nH]c12 [OSI-027] (partner 0.5 µM)
# Outline: (§1)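 Nuclei were stained with Hoechst during a one-step fixation (final 0.05% Triton X-100, 1% formaldehyde, 1 ug/ml Hoechst) carried out 5 days after dosing, then counted on 4× images. The cells, lung cancer lines in 1536-well plates, had been dosed by pin tool the day after seeding with one drug alone or a fixed anchor-drug dose plus five library-drug doses (not always all listed) in √10 steps. Relative viability is the nuclei count in treated wells divided by that in vehicle wells, and each value is the median of duplicate plates.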
# [2] = compound: CC[C@H](Nc1ncnc2[nH]cnc12)c1nc2cccc(F)c2c(=O)n1-c1ccccc1 [Idelalisib] + C[C@]1(O)C[C@@H](c2nc(-c3ccc4ccc(-c5ccccc5)nc4c3)c3c(N)nccn32)C1 [Linsitinib] (partner 1 µM)
# Outline: as §1
# [3] = compound: Nc1nc2[nH]cc(CCc3ccc(C(=O)N[C@@H](CCC(=O)O)C(=O)O)cc3)c2c(=O)[nH]1 [Pemetrexed] + CC(=O)c1c(C)c2cnc(Nc3ccc(N4CCNCC4)cn3)nc2n(C2CCCC2)c1=O [Palbociclib] (partner 0.5 µM)
# Outline: as §1
# [4] = compound: Nc1nc2[nH]cc(CCc3ccc(C(=O)N[C@@H](CCC(=O)O)C(=O)O)cc3)c2c(=O)[nH]1 [Pemetrexed] + C[C@@H](Oc1cc(-c2cnn(C3CCNCC3)c2)cnc1N)c1c(Cl)ccc(F)c1Cl [Crizotinib] (partner 1 µM)
# Outline: as §1
Cell Line,relative viability ([1]; first compound 0.04 µM),relative viability ([1]; first compound 0.1265 µM),relative viability ([1]; first compound 0.4 µM),relative viability ([1]; first compound 1.265 µM),relative viability ([1]; first compound 4 µM),relative viability ([2]; first compound 0.04 µM),relative viability ([2]; first compound 0.1265 µM),relative viability ([2]; first compound 0.4 µM),relative viability ([2]; first compound 1.265 µM),relative viability ([2]; first compound 4 µM),relative viability ([3]; first compound 0.002 µM),relative viability ([3]; first compound 0.006325 µM),relative viability ([3]; first compound 0.02 µM),relative viability ([3]; first compound 0.06325 µM),relative viability ([3]; first compound 0.2 µM),relative viability ([4]; first compound 0.002 µM),relative viability ([4]; first compound 0.006325 µM),relative viability ([4]; first compound 0.02 µM),relative viability ([4]; first compound 0.06325 µM),relative viability ([4]; first compound 0.2 µM)
CAL-12T,0.643,0.753,0.537,0.569,0.537,0.823,0.906,0.733,0.822,0.584,0.338,0.435,0.575,0.438,0.341,0.647,0.67,0.971,0.65,0.643
COR-L23,0.78,0.815,0.722,0.809,0.74,1,1.04,0.745,0.822,0.864,0.21,0.275,0.254,0.149,0.127,0.589,0.631,0.636,0.26,0.14
COR-L 105,0.739,0.629,0.505,0.725,0.579,1.05,0.83,0.793,0.806,0.595,0.295,0.424,0.399,0.396,0.423,0.78,0.75,0.895,0.88,0.75
EKVX,0.705,0.709,0.527,0.557,0.586,0.832,0.97,0.849,0.724,0.758,0.386,0.365,0.407,0.399,0.284,0.816,0.841,0.907,0.856,0.508
EMC-BAC-2,0.388,0.411,0.308,0.363,0.352,0.868,0.8,0.757,0.818,0.748,0.51,0.461,0.543,0.493,0.466,0.76,0.639,0.831,0.803,0.741
EPLC-272H,0.304,0.296,0.271,0.294,0.274,1.49,0.996,0.977,1.13,0.976,0.355,0.331,0.356,0.332,0.303,0.781,0.913,1.07,0.981,0.853
H3255,0.721,0.566,0.558,0.517,0.534,0.959,1.01,0.829,0.857,0.801,0.351,0.319,0.312,0.31,0.328,,0.952,0.926,0.864,0.608
HARA,0.618,0.466,0.296,0.374,0.441,1.21,0.911,0.869,0.887,0.936,0.241,0.277,0.228,0.231,0.234,1.27,1.02,1.03,0.98,0.216
HCC-15,0.702,0.754,0.509,0.869,0.668,0.909,0.866,0.857,0.89,0.873,0.661,0.712,0.717,0.669,0.309,0.747,0.824,0.883,0.775,0.473
HCC-44,0.474,0.54,0.437,0.604,0.5,0.662,0.65,0.596,0.476,0.584,0.909,0.95,0.934,0.972,0.99,0.758,0.775,0.84,0.847,0.574
HCC-78,0.413,0.364,0.324,0.36,0.293,0.254,0.514,0.346,0.45,0.226,0.443,0.484,0.441,0.417,0.424,,0.304,0.337,0.25,0.197
HCC-366,1.09,0.889,0.598,0.788,0.677,0.619,0.598,0.444,0.578,0.253,0.356,0.349,0.349,0.367,0.226,0.49,0.404,0.701,0.586,0.476
HCC-827,0.928,0.738,0.759,0.698,0.659,0.958,0.961,0.96,0.885,0.965,0.386,0.413,0.529,0.44,0.327,0.856,1.03,0.944,0.888,0.779
HOP-62,0.775,0.879,0.719,0.888,0.767,1.04,1.04,,1.07,0.884,0.363,0.479,0.555,0.452,0.37,0.836,0.779,0.499,0.791,0.933
LC-2-ad,0.944,0.781,0.651,0.82,0.715,0.966,0.848,0.805,0.75,0.719,0.452,0.501,0.524,0.431,0.404,0.425,0.473,0.457,0.263,0.29
LCLC-97TM1,0.649,0.543,0.24,0.554,0.418,0.209,0.184,,0.175,0.156,0.225,0.228,0.206,0.21,0.259,0.263,0.352,0.404,0.338,0.224

Cell Line,relative viability ([1]; first compound 0.04 µM),relative viability ([1]; first compound 0.1265 µM),relative viability ([1]; first compound 0.4 µM),relative viability ([1]; first compound 1.265 µM),relative viability ([1]; first compound 4 µM),relative viability ([2]; first compound 0.04 µM),relative viability ([2]; first compound 0.1265 µM),relative viability ([2]; first compound 0.4 µM),relative viability ([2]; first compound 1.265 µM),relative viability ([2]; first compound 4 µM),relative viability ([3]; first compound 0.002 µM),relative viability ([3]; first compound 0.006325 µM),relative viability ([3]; first compound 0.02 µM),relative viability ([3]; first compound 0.06325 µM),relative viability ([3]; first compound 0.2 µM),relative viability ([4]; first compound 0.002 µM),relative viability ([4]; first compound 0.006325 µM),relative viability ([4]; first compound 0.02 µM),relative viability ([4]; first compound 0.06325 µM),relative viability ([4]; first compound 0.2 µM)
LCLC-103H,0.545,0.497,0.368,0.459,0.424,1.11,0.948,0.886,1.05,0.704,0.465,0.454,0.496,0.443,0.479,0.94,1.01,1.07,1.08,1.07
LK-2,0.219,0.223,,0.198,0.183,0.531,0.418,0.5,0.518,0.419,0.751,0.758,0.721,0.464,0.366,,0.252,0.221,0.249,0.247
LOU-NH91,0.776,0.732,0.687,0.517,0.708,0.942,0.88,0.904,0.683,0.864,0.478,0.555,0.543,0.534,0.52,0.701,0.747,0.988,0.636,0.504
LU99A,0.302,0.322,0.242,0.298,0.305,0.473,0.528,0.489,0.43,0.446,0.409,0.389,0.407,0.397,0.407,0.543,0.621,0.62,0.594,0.325
LXF-289,0.879,0.782,0.632,0.813,0.764,1,0.978,0.938,1.07,0.978,0.593,0.623,0.589,0.594,0.557,0.808,0.832,0.841,0.843,0.79
NCI-H23,0.614,0.618,0.216,,0.537,0.693,0.592,0.436,0.499,0.474,0.451,0.439,0.448,0.503,0.473,0.507,0.467,0.589,0.438,0.425
NCI-H322M,0.612,0.546,0.463,0.539,0.511,0.971,0.924,0.801,0.642,0.692,0.465,0.458,0.494,0.509,0.462,0.886,0.884,1.05,0.912,0.778
NCI-H358,0.773,0.875,0.554,0.695,0.72,0.805,0.794,0.638,0.64,0.637,0.149,0.111,0.14,0.134,0.137,0.555,0.524,0.558,0.287,0.179
NCI-H441,0.788,0.561,0.397,0.526,0.616,0.43,0.437,,0.438,0.41,0.212,0.229,0.211,0.18,0.204,0.608,0.777,0.865,0.567,0.396
NCI-H460,0.911,0.794,0.469,0.571,0.45,0.834,0.801,0.624,0.681,0.56,,0.142,0.206,0.0722,0.0459,0.842,0.794,1.02,0.197,0.0567
NCI-H520,0.287,0.265,0.186,0.206,0.179,0.98,0.935,0.856,0.894,0.648,0.225,0.238,0.271,0.243,0.248,0.776,0.679,1.08,0.969,0.79
NCI-H647,0.758,0.64,,0.527,0.423,0.882,1.19,0.93,0.805,0.976,0.353,0.352,0.393,0.288,0.158,,0.921,1.14,0.785,0.32
NCI-H650,0.491,0.574,0.446,0.527,0.506,0.934,0.981,0.789,0.798,0.775,0.344,0.298,,0.348,0.313,0.698,0.725,0.66,0.762,0.696
NCI-H661,0.705,0.838,0.607,0.661,0.706,0.588,0.551,0.373,0.389,0.458,0.501,0.419,0.405,0.415,0.386,1.06,1.03,0.949,,0.944
NCI-H727,0.749,0.708,0.45,0.562,0.52,0.318,0.296,0.281,0.402,0.267,0.721,0.692,0.638,0.633,0.613,0.56,0.782,0.877,0.986,0.732
NCI-H838,0.416,0.346,0.271,0.453,0.317,0.926,1.01,0.891,1.01,0.8,0.219,0.223,0.28,0.252,0.173,0.83,0.814,1.03,0.935,0.415
